What was measured:
human FSH receptor = biological target: T1, human FSH receptor (Homo sapiens, UniProt P23945); experiment: FSH receptor-dependent CRE-luciferase reporter gene assay (CHO FSH-R 6CRE-Luc cells); assay type: cell-based; conditions: dose-response in presence of EC50 of purified human FSH; read-out: CRE IC50
T1 construct: host or cells: CHO-K1 (CHO FSH-R 6CRE-Luc, 1D7 cells)
T1 sequence (P23945 18-695): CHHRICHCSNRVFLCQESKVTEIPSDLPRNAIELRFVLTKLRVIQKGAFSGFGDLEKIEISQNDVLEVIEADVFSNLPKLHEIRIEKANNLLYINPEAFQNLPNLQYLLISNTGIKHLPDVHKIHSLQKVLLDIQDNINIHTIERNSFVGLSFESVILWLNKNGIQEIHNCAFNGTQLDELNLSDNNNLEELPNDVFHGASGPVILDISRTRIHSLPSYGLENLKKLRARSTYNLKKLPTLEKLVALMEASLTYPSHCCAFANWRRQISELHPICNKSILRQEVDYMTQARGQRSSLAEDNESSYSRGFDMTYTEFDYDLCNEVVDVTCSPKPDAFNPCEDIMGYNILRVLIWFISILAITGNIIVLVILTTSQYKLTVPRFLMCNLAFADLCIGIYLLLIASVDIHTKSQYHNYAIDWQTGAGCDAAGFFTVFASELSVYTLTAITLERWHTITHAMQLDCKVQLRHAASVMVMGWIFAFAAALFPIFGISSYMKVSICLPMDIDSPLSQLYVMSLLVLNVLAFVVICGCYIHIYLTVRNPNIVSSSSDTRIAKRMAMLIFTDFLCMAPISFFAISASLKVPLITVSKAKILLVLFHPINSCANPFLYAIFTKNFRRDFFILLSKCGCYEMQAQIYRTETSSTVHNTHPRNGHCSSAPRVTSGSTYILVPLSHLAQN
Source text: Follicle-Stimulating Hormone Receptor-Dependent CRE-Luciferase Reporter Gene Assay for the Identification of Follicle-Stimulating Hormone (FSH) Antagonists
This procedure was used to identify and determine the relative potencies of human FSH receptor antagonists using a Chinese hamster ovarian cell line that stably produces the human FSH receptor and a luciferase reporter gene regulated by cAMP response elements.
The compounds were subsequently diluted in DMSO to working dilutions of 1 and 20 or 30 mM for 2-dose testing format and 1 μM-10 mM for dose-response format. The DMSO dilutions were diluted 500-fold in sterile growth medium [D-MEM/F-12 (GIBCO/BRL; Grand Island N.Y.) containing 15 mM HEPES, 2 mM 1-glutamine, pyridoxine hydrochloride, phenol red and 5% FetalClone II (HyClone Laboratories, Inc; Logan, Utah), 0.2% DMSO, 100 units penicillin G/ml, and 100 μg streptomycin sulfate/ml (GIBCO/BRL)]. The concentration of the vehicle in each of the compound dilutions was the same. • Positive Controls: Purified human FSH (>98%) was purchased from Cortex Biochem, Inc. (San Leandro, Calif.) and WAY-162002 (an FSH-R thiazolidinone antagonist) was obtained from the Wyeth Research compound repository. Preparation of Cells
The CHO FSH-R 6CRE-Luc cells (1D7 cells) were obtained from Affymax (Palo Alto, Calif.). These Chinese hamster ovary cells (CHO—K1) were genetically engineered to stably express the recombinant human FSH receptor gene and a luciferase reporter gene under the regulation of 6 copies of a cAMP response element. The cells were plated one day prior to treatment into 96-well white opaque plates at a density of 50,000 cells/100 μl/well in growth medium. On the day of treatment, the growth medium was removed from the wells by aspiration and 50 μl of fresh growth medium was added to each well. The cells were incubated at 37° C. in a humidified incubator with 5% CO2/95% air.
The treated cells were incubated for 4 hours at 37° C. in a humidified incubator with 5% CO2/95% air. At the end of-the incubation period, luciferase activity was measured by chemiluminescence using a commercially available kit (LucScreen, Tropix, Inc., Bedford, Mass.) according to the manufacturer's specifications, except that Buffer 1 and Buffer 2 were mixed together in equal proportion prior to the addition of 100 μl of the combined reagents to each well. Chemiluminescence was detected using a luminometer (EG & G Berthold Microlumat LB 96 P, Wallac, Gaithersburg, Md.) with chemiluminescence measured for 1 sec/well. Background luminescence was measured for each well prior to the addition of the LucScreen reagent.
In the 96-well 2-dose format, each compound was tested in duplicate at each dose. […] One plate was used to test a maximum of 22 compounds.
The EC50 of purified human FSH alone was tested in triplicate with each test compound. The doses chosen to test each compound were extrapolated from the initial 2-dose screening process. Along with the test compounds, purified human FSH was also tested in a dose response (0.03, 0.1, 0.3, 1, 3, 10, and 30 ng/ml) for a positive control and quality control. One plate was used for 3 test compounds and the FSH positive control.
Luciferase activity is expressed as relative light units/sec/well. Luciferase activity in antagonist was compared to the appropriate negative and positive controls. For 2-dose testing, results are reported as luciferase activity and are expressed as % inhibition of the response obtained from the EC50 of FSH. For dose-response testing, results are reported as IC50 values. Data were analyzed statistically by one-way analysis of variance with appropriate weighting and transformation and relevant paired test as determined by Biometrics (Wyeth Research, Princeton, N.J.). IC50 values were calculated using the Stat/Excel program developed by Biometrics with appropriate weighting and transformation.

hFSH-R = biological target: T2, hFSH-R (Homo sapiens, UniProt P23945); experiment: cAMP accumulation bio-assay in CHO-3D2 cells (hFSH-R), RIA; assay type: cell-based
T2 construct: expressed in transfected cells; host or cells: CHO-3D2 cells
T2 sequence (P23945 18-695): T1 sequence (P23945 18-695)
Procedure: The compounds were subsequently diluted in sterile assay medium consisting of Opti-MEM® I (Life Technologies) with 0.1% (w/v) BSA (Sigma), prior to use in the bio-assay. The final concentration of DMSO in the assay is 0.1%.
Plated cells are then incubated at 37° C. in a humidified 5% CO2/95% air, atmosphere.
On the day of the assay, cells were washed three times with 100 μl/well of assay medium consisting of Opti-MEM® I (Life Technologies) with 0.1% (w/v) BSA (Sigma). Medium was removed and 100 μl of assay medium was added to each well. Plates were incubated for an additional 30 minutes at 37° C. […] Reactions were terminated by the addition of 50 μl of 0.2N hydrochloric acid to each well and cAMP-accumulation was measured by radioimmunoassay (RIA) using a commercially available kit (Amersham).
All test compounds were evaluated in a dose-response paradigm ranging from 0.01 to 30 μM. Controls and test compounds were evaluated in quadruplicate in a 96-well format.
Data were analyzed by one-way analysis of variance and significant differences between treatments and control determined by Least Significant Difference test.
Test compounds were compared to the effect of purified human FSH.

IC50 (human FSH receptor): 6.82 µM | IC50 (hFSH-R): 2 µM | Emax (hFSH-R; read-out: cAMP % efficacy): 78%
SMILES: COc1ccccc1-c1ccc(C(=O)N2Cc3ccc(C(=O)CCc4cccnc4)n3Cc3ccccc32)cc1 [Example 3, 1-{10-[(2′-Methoxy-1,1′-biphenyl-4-yl)carbonyl]-10,11-dihydro-5H-pyrrolo[2,1-c][1,4]benzodiazepin-3-yl}-3-pyridin-3-ylpropan-1-one]

— patent US20060258644A1, “Pyrrolobenzodiazepines and heteroaryl, aryl and cycloalkylamino ketone derivatives as follicle stimulating hormone receptor (FSH-R) antagonists” (Wyeth, priority 2005, published 2006)
